Laboratory results published in PMC11073699, “Odorant receptors for floral- and plant-derived volatiles in the yellow fever mosquito, Aedes aegypti (Diptera: Culicidae)” (PLOS ONE, 2024).
Values joined by “and” are separate entries in the source; they are usually repeats but may differ in a detail not shown here. Equal entries are not always repeated.

What was measured:
Type in all cases: cell-based
[1] = target: T1, AaegOR31 (Aedes aegypti, UniProt Q16JU0); assay: Two-electrode voltage clamp of Xenopus laevis oocytes expressing AaegOR31/Orco (blends, unitary compounds, concentration-response); conditions: for Raw Data (Responses in nA), Alcohols 1 unitary compounds / Normalized response, Average, Alcohols 1 unitary compounds / Normalized response, Alcohols 1 unitary compounds / Raw Data (Responses in nA), concentration-response: AaegOR31; for Raw Data (Responses in nA), Alcohols 1 unitary compounds / Normalized response, Average, Alcohols 1 unitary compounds / Normalized response, Alcohols 1 unitary compounds: compounds of blend Alcohols 1; for Raw Data (Responses in nA), Alcohols 1 unitary compounds / Normalized response, Alcohols 1 unitary compounds: individual oocytes (Oocyte 1-8); for Normalized response, Average, Alcohols 1 unitary compounds: average of 8 oocytes; for Normalized response, Alcohols 1 unitary compounds: normalized to the strongest compound per oocyte; for Raw Data (Responses in nA), concentration-response: individual oocytes (Oocyte 1-10)
T1 sequence (Q16JU0 1-381): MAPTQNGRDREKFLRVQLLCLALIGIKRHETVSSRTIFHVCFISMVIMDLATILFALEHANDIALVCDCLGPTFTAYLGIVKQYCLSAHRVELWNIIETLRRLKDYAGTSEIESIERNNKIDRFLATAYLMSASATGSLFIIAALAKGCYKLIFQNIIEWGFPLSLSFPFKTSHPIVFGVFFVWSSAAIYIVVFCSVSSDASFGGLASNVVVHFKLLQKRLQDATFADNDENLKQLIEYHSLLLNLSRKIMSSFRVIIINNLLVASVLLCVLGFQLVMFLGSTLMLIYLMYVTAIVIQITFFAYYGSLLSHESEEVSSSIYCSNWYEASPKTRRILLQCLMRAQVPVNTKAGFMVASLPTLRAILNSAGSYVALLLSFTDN
T1 sequence (Q178U6 1-478 partner): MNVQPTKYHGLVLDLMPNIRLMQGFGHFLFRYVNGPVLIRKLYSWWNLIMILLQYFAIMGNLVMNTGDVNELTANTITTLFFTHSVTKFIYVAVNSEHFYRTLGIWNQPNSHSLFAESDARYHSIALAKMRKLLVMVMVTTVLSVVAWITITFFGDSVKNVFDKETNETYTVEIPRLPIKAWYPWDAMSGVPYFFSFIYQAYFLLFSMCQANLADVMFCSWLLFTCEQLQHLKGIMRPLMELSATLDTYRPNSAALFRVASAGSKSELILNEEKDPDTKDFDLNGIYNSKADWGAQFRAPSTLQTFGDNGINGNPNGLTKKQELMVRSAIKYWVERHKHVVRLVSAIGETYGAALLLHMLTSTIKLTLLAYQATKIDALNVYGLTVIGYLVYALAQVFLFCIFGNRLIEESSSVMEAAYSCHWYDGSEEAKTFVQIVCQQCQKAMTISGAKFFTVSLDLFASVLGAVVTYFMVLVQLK
From the text: (§1) The coding regions of ten AaegOR genes of interest (S3 File) and AaegOrco were synthesized by Twist Bioscience (San Francisco, CA, USA) and cloned into the pENTR plasmid. The Gateway LR directional cloning system (Invitrogen Corp., Carlsbad, CA, USA) was utilized to subclone AaegOR coding regions into the pSP64t-RFA oocyte expression plasmid. Plasmids were purified using the GeneJet Plasmid Miniprep Kit (ThermoFisher Scientific, Waltham, MA, USA). Purified plasmids were sequenced in both directions to confirm coding regions.
(§2) Chemical compounds (S6 File) used in the deorphanization of AaegORs were purchased from Acros Organics (Morris, NJ, USA), Alfa Aesar (Ward Hill, MA, USA), and ThermoFisher Scientific (Waltham, MA, USA) at the highest purity available. Compounds were stored as 1M stocks in 100% DMSO. Serial dilutions of each compound were prepared in 10% DMSO and blended by chemical class.
(§3) pSP64t-RFA: AaegOR clones were linearized using Xbal, and cRNAs were synthesized using the mMESSAGE mMACHINE ® SP6 kit (Life Technologies, Carlsbad, CA, USA). Xenopus laevis stage V-VII oocytes purchased from Xenopus1 (Dexter, MI, USA) were stored at 18°C in Incubation medium (ND96 96 with 5% dialyzed horse serum, 50μg/mL gentamycin, 100μg/mL streptomycin, 100μg/mL penicillin, and 550μg/mL sodium pyruvate). 30nL of cRNA was injected into multiple oocytes using a microinjection syringe pump (World Precision Instruments, Sarasota, FL, USA) maintained at 18°C for 48–72 hrs. Odorant blends were perfused across individual oocytes for 10–15 seconds, held at a resting membrane potential of -80 mV using an OC-725C oocyte clamp (Warner Instruments, LLC, Hamden, CT, USA). Induced currents were measured indirectly using the two-electrode voltage clamp technique (TEVC). Following each stimulus, currents were allowed to return to baseline before further stimulation. Data was captured using the Digidata 1550 B digitizer and PClamp10 software (Molecular Devices, San Jose, CA, USA). Concentration-response curves were generated by perfusing unitary odorants over oocytes at increasing concentrations from [10^-3M] to [10^-9M]. Data were analyzed using GraphPad Prism 8 (GraphPad Software Inc., La Jolla, CA, USA). At least two biological replicates were conducted at each concentration and for each compound. Data for at least seven oocytes responding to each compound was analyzed (S7 File).

[2] = target: T2, AaegOR13 (Aedes aegypti, UniProt Q16Z13); assay: Two-electrode voltage clamp of Xenopus laevis oocytes expressing AaegOR13/Orco (blends, unitary compounds, concentration-response); conditions: unitary compounds; for Raw data (Responses in nA), unitary compounds of Indoles 1, Alcohols 1, Alcohols 3 / Normalized response, unitary compounds of Indoles 1, Alcohols 1, Alcohols 3: individual oocytes 1-7; for Normalized response, unitary compounds, Average: average of oocytes 1-7; for Normalized response, unitary compounds of Indoles 1, Alcohols 1, Alcohols 3: normalized per oocyte
T2 sequence (Q16Z13 1-389): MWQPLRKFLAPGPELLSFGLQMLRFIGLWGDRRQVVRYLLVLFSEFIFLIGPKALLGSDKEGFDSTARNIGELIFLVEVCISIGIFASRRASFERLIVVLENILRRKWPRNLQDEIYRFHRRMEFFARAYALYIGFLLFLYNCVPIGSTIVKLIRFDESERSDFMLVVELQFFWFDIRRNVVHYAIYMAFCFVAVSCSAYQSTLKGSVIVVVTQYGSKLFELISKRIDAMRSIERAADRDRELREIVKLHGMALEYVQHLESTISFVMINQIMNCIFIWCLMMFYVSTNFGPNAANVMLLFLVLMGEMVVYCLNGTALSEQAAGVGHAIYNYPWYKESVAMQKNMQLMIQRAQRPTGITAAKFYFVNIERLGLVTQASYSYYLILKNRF
T2 sequence (Q178U6 1-478 partner): T1 sequence (Q178U6 1-478 partner)
From the text: as §1, §2, §3

[3] = target: T3, AaegOR28 (Aedes aegypti, UniProt Q0IGE1); assay: Two-electrode voltage clamp of Xenopus laevis oocytes expressing AaegOR28/Orco (blends, unitary compounds, concentration-response); conditions: AaegOR28, compounds of blend Alcohols 3; for Raw Data (Responses in nA), Alcohols 3 unitary compounds: individual oocytes 1-10
T3 sequence (Q0IGE1 1-394): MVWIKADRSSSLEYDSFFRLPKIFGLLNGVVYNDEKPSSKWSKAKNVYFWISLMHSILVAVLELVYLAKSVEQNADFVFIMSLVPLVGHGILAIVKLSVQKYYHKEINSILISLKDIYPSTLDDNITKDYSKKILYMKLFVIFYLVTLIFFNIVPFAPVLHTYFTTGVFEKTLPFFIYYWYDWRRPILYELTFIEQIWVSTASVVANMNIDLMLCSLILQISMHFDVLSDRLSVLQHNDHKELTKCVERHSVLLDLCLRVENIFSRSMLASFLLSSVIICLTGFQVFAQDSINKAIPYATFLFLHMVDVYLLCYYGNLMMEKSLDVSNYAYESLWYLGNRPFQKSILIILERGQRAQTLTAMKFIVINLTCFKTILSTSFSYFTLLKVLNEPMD
T3 sequence (Q178U6 1-478 partner): T1 sequence (Q178U6 1-478 partner)
From the text: as §1, §2, §3

| Structure (SMILES) | Raw Data (Responses in nA), Alcohols 1 unitary compounds [1] | Raw data (Responses in nA), unitary compounds of Indoles 1, Alcohols 1, Alcohols 3 [2] | Normalized response, Average, Alcohols 1 unitary compounds [1] | Normalized response, Alcohols 1 unitary compounds [1] | Normalized response, unitary compounds, Average [2] | Normalized response, unitary compounds of Indoles 1, Alcohols 1, Alcohols 3 [2] | also measured |
| --- | --- | --- | --- | --- | --- | --- | --- |
| CC1CCC(C(C)C)C(O)C1 (racemic) [DL-menthol] | 5.0 nA (2×) and 0.0 nA (6×) | 0.0 nA (4×) and 30.0 nA and 10.0 nA and 5.0 nA |  |  |  |  |  |
| CC(C)O [2-propanol] | 10.0 nA and 20.0 nA and 15.0 nA and 0.0 nA (5×) | 0.0 nA | 10.7 | 5.9 and 50.0 and 30.0 and 0.0 (5×) | 0.0 | 0.0 |  |
| CC(C)(C)c1ccc(O)cc1 [4-tert butylphenol] | 0.0 nA (7×) and 10.0 nA |  |  |  |  |  |  |
| C=C[C@@](C)(O)CCC=C(C)C [(S)-(+)-linalool] |  |  |  |  |  |  | Normalized response, Average, Alcohols 3 unitary compounds ([3]; average of 10 oocytes): 19.1; Raw Data (Responses in nA), Alcohols 3 unitary compounds [3]: 10 nA (2×) and 5 nA (5×) and 0 nA and 15 nA (2×); Normalized response, Alcohols 3 unitary compounds ([3]; individual oocytes 1-10, normalized to largest response of each oocyte): 33.3 and 14.3 and 25.0 and 0.0 and 30.0 and 16.7 (2×) and 12.5 and 22.2 and 20 |
| CC(C)=CCC/C(C)=C/CO [Geraniol] |  |  |  |  |  |  | Raw Data (Responses in nA), Alcohols 3 unitary compounds [3]: 0 nA |
| CCO [ethanol] | 0.0 nA | 0.0 nA | 0.0 | 0.0 | 0.0 | 0.0 |  |
| CC(C)=CCC/C(C)=C/CC/C(C)=C/CO [farnesol] | 170.0 nA and 40.0 nA and 50.0 nA and 120.0 nA and 340.0 nA and 75.0 nA and 80.0 nA and 270.0 nA | 0.0 nA |  |  |  |  | EC50 ([1]; AaegOR31/Orco expressing oocytes, TEVC, concentration-response of normalized current): 14.3 µM; Raw Data (Responses in nA), concentration-response ([1]; concentration 1e-7 M): 0.0 nA (4×) and 20.0 nA and 30.0 nA (2×) and 10.0 nA (2×) and 5.0 nA; Raw Data (Responses in nA), concentration-response ([1]; concentration 5e-7 M): 5.0 nA (3×) and 10.0 nA (4×) and 20.0 nA and 0.0 nA and 15.0 nA; Raw Data (Responses in nA), concentration-response ([1]; concentration 1e-6 M): 20.0 nA (6×) and 0.0 nA (2×) and 10.0 nA (2×); Raw Data (Responses in nA), concentration-response ([1]; concentration 5e-6 M): 90.0 nA (2×) and 80.0 nA and 30.0 nA and 50.0 nA (2×) and 20.0 nA (2×) and 40.0 nA and 100.0 nA; Raw Data (Responses in nA), concentration-response ([1]; concentration 1e-5 M): 130.0 nA (2×) and 120.0 nA (2×) and 55.0 nA and 90.0 nA and 160.0 nA and 45.0 nA and 50.0 nA and 170.0 nA; Raw Data (Responses in nA), concentration-response ([1]; concentration 5e-5 M): 190.0 nA and 320.0 nA and 270.0 nA and 130.0 nA and 260.0 nA and 430.0 nA and 150.0 nA and 100.0 nA and 290.0 nA and 360.0 nA; Raw Data (Responses in nA), concentration-response ([1]; concentration 0.0001 M): 160.0 nA and 440.0 nA and 280.0 nA and 210.0 nA and 270.0 nA and 400.0 nA and 170.0 nA and 80.0 nA and 320.0 nA and 430.0 nA |
| OCC(O)CO [glycerol] | 5.0 nA (2×) and 0.0 nA (6×) | 0.0 nA |  |  |  |  |  |
| Cc1cccc(O)c1 [m-cresol] | 15.0 nA and 0.0 nA (7×) | 0.0 nA and 75.0 nA and 25.0 nA (2×) and 40.0 nA (2×) and 45.0 nA |  |  |  |  |  |
| CO [methanol] | 0.0 nA | 0.0 nA | 0.0 | 0.0 | 0.0 | 0.0 |  |
| CCCCO [n-butanol] | 0.0 nA | 0.0 nA | 0.0 | 0.0 | 0.0 | 0.0 |  |
| Cc1ccccc1O [o-cresol] | 0.0 nA | 0.0 nA and 110.0 nA and 25.0 nA and 35.0 nA and 50.0 nA and 45.0 nA and 15.0 nA |  |  |  |  |  |
| Cc1ccc(O)cc1 [p-cresol] | 0.0 nA | 20.0 nA and 290.0 nA and 85.0 nA and 140.0 nA and 165.0 nA and 135.0 nA and 90.0 nA |  |  |  |  |  |
